Earlier results in US8168657B2, “Solenopsin A, B and analogs and as novel angiogenesis inhibitors” (priority 2002, dated 2012).

Legend:
[1] = tested on: blood and tissue- and fluid-feeding parasites
[2] = as much as 6000 units used over a shorter time period

For `CCCCCCCCCCC[C@H]1CCC[C@H](C)N1` (relative stereo) [Solenopsin A, trans-2-methyl 6-n-undecylpiperidine], the “units equivalent to 250 units of the whole body extracts” value ([1]; synthetic version versus whole body extract, effective treatment) is given as 1500 units, the “elimination of blood and tissue- and fluid-feeding parasites” value ([1]; synthetically produced Solenopsin A) is given as “complete elimination” and the ill effects [2] is given as “did not cause any ill effects”.
